Results from ChEMBL document CHEMBL1909046, “DrugMatrix in vitro pharmacology data”.
pIC50, pKi: −log10 of the molar value.

What was measured:
[1] = DRUGMATRIX: Serotonin (5-Hydroxytryptamine) 5-HT3 radioligand binding (ligand: [3H] GR-65630); assay type: cell membranes, Membrane; details: hek293; Not Active = under 50% inhibition at 10 µM
[2] = DRUGMATRIX: Tumor Necrosis Factor (TNF), Non-Selective radioligand binding (ligand: [125I] TNF-alpha); assay type: cell membranes, Membrane; details: u-937; Not Active = under 50% inhibition at 10 µM
[3] = target: Cytochrome P450 2E1 (Homo sapiens, UniProt P05181); details: bti-tn-5b1-4; note: in other assays of this panel Not Active means under 50% inhibition at 10 µM
Chain of Cytochrome P450 2E1 (P05181 whole entry): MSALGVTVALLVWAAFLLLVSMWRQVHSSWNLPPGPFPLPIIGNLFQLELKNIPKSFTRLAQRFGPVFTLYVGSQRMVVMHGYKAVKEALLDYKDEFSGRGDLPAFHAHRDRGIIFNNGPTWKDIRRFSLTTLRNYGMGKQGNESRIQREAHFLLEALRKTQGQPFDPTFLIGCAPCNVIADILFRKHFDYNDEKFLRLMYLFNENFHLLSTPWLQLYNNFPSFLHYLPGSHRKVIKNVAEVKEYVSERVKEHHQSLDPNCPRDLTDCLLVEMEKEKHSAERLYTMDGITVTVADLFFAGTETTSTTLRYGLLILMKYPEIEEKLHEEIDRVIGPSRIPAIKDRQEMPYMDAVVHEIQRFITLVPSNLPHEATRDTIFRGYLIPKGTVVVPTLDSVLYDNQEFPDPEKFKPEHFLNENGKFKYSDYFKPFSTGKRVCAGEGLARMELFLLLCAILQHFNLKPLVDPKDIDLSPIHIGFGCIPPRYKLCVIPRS

[4] = target: T1, Adenosine receptor A3 (Homo sapiens, UniProt P0DMS8); assay type: cell membranes, CHO-K1, Membrane; details: for IC50: cho-k1;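 for all read-outs here: radioligand binding assay with AB-MECA serving as the labeled ligand; in other assays of this panel Not Active means under 50% inhibition at 10 µM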
T1 sequence (P0DMS8 whole entry): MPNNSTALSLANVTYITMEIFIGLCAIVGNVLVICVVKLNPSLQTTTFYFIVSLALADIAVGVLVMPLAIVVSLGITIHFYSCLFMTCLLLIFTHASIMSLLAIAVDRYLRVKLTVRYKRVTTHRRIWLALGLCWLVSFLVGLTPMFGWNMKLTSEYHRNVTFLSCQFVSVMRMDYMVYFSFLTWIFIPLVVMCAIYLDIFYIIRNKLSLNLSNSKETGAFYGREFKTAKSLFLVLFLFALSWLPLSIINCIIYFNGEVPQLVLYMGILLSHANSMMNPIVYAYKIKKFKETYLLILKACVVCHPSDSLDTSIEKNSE

[5] = target: cGMP-specific 3',5'-cyclic phosphodiesterase (Homo sapiens, UniProt O76074); assay: DRUGMATRIX: Phosphodiesterase PDE5 enzyme inhibition (substrate: [3H]cGMP + cGMP); assay type: tissue-based; details: platelet; Not Active = under 50% inhibition at 10 µM
[6] = target: T2, Muscarinic acetylcholine receptor M2 (Homo sapiens, UniProt P08172); assay type: cell membranes, CHO-K1, Membrane; details: for IC50: cho-k1; for all read-outs here: in other assays of this panel Not Active means under 50% inhibition at 10 µM
T2 sequence (P08172 whole entry): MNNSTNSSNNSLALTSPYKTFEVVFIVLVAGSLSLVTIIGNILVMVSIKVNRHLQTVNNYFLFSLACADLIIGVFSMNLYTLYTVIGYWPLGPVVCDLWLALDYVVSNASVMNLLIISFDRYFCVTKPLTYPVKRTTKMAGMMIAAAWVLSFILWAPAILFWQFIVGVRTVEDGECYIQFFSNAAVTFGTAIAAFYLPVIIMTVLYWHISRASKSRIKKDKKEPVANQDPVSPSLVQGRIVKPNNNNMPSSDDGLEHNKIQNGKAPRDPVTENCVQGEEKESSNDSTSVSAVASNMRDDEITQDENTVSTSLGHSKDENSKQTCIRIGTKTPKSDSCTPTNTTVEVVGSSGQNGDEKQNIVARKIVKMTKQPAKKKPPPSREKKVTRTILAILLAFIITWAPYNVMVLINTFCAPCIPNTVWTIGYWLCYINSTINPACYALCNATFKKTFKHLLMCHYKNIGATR

[7] = target: C-C chemokine receptor type 2 (Homo sapiens, UniProt P41597); assay type: cell membranes, CHO-K1, Membrane; details: for IC50: cho-k1; for all read-outs here: in other assays of this panel Not Active means under 50% inhibition at 10 µM
Chain of C-C chemokine receptor type 2 (P41597 whole entry): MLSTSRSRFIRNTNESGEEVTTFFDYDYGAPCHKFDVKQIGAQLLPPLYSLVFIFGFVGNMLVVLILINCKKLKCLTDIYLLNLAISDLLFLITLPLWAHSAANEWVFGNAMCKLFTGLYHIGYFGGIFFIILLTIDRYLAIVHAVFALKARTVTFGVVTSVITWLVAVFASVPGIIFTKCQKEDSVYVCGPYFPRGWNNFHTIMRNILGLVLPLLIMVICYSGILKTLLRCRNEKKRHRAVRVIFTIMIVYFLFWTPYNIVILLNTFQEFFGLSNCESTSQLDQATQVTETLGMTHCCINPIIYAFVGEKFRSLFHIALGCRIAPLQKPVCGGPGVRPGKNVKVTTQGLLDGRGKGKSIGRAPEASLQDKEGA

SMILES | IC50 [1] | Ki [1] | IC50 [2] | Ki [2] | IC50 [3] | Ki [3] | IC50 [4] | IC50 [5] | IC50 [6] | IC50 [7] | pIC50 ([6]; read-out: IC50) | pKi ([6]; read-out: Ki) | pIC50 ([7]; read-out: IC50) | pKi ([7]; read-out: Ki) | pIC50 ([4]; read-out: IC50) | pKi ([4]; read-out: Ki)
Nn1nnc2ccccc21 | Not Active | Not Active | Not Active | Not Active | Not Active | Not Active | Not Active | Not Active | Not Active | Not Active | – | – | – | – | – | –
CC[C@]1(O)CC[C@H]2[C@@H]3CCC4=CCCC[C@@H]4[C@H]3CC[C@@]21C | Not Active | Not Active | Not Active | Not Active | Not Active | Not Active | Not Active | Not Active | – | Not Active | 6.53 | 6.98 | – | – | – | –
N[C@@H](Cc1ccc(F)cc1)C(=O)O | Not Active | Not Active | Not Active | Not Active | – | – | Not Active | Not Active | Not Active | Not Active | – | – | – | – | – | –
CCOC(=O)[C@H](CCc1ccccc1)N[C@@H](C)C(=O)N1Cc2ccccc2C[C@H]1C(=O)O | Not Active | Not Active | Not Active | Not Active | Not Active | Not Active | Not Active | Not Active | Not Active | Not Active | – | – | – | – | – | –
O=C(c1ccccc1Cl)N1CCC(Cc2ccccc2)CC1 | Not Active | Not Active | Not Active | Not Active | Not Active | Not Active | Not Active | Not Active | Not Active | Not Active | – | – | – | – | – | –
CCOC(=O)[C@H](CCc1ccccc1)N[C@@H](C)C(=O)N1CCC[C@H]1C(=O)O | Not Active | Not Active | Not Active | Not Active | Not Active | Not Active | Not Active | Not Active | Not Active | Not Active | – | – | – | – | – | –
Clc1cc2c(cc1Cl)Oc1cc(Cl)c(Cl)cc1O2 [2,3,7,8-TETRACHLORODIBENZO-P-DIOXIN] | Not Active | Not Active | Not Active | Not Active | Not Active | Not Active | Not Active | Not Active | Not Active | Not Active | – | – | – | – | – | –
C=C1/C(=C\C=C2/CCC[C@]3(C)[C@@H]([C@H](C)CCCC(C)C)CC[C@@H]23)C[C@@H](O)C[C@@H]1O [ALFACALCIDOL] | Not Active | Not Active | Not Active | Not Active | Not Active | Not Active | Not Active | Not Active | Not Active | Not Active | – | – | – | – | – | –
CCCCCC[C@H]1C(=O)O[C@H](C)[C@H](NC(=O)c2cccc(NC=O)c2O)C(=O)O[C@@H](C)[C@@H]1OC(=O)CC(C)C [ANTIMYCIN A] | Not Active | Not Active | Not Active | Not Active | Not Active | Not Active | Not Active | Not Active | Not Active | Not Active | – | – | – | – | – | –
C[C@@H]1CC[C@H]2[C@@H](C)C(=O)O[C@@H]3O[C@@]4(C)CC[C@@H]1[C@]32OO4 [ARTEMISININ] | Not Active | Not Active | Not Active | Not Active | – | – | Not Active | Not Active | Not Active | Not Active | – | – | – | – | – | –
CO[C@H]1[C@@H](O)[C@H](N)[C@@H](O[C@H]2O[C@H]([C@H](C)N)CC[C@H]2N)[C@H](O)[C@@H]1N(C)C(=O)CN [ASTROMICIN] | Not Active | Not Active | Not Active | Not Active | Not Active | Not Active | Not Active | Not Active | Not Active | Not Active | – | – | – | – | – | –
[N-]=[N+]=CC(=O)OC[C@H](N)C(=O)O [AZASERINE] | Not Active | Not Active | Not Active | Not Active | Not Active | Not Active | Not Active | Not Active | Not Active | Not Active | – | – | – | – | – | –
CC[C@H]1OC(=O)[C@H](C)[C@@H](O[C@H]2C[C@@](C)(OC)[C@@H](O)[C@H](C)O2)[C@H](C)[C@@H](O[C@@H]2O[C@H](C)C[C@H](N(C)C)[C@H]2O)[C@](C)(O)C[C@@H](C)CN(C)[C@H](C)[C@@H](O)[C@]1(C)O [AZITHROMYCIN] | Not Active | Not Active | Not Active | Not Active | Not Active | Not Active | Not Active | Not Active | Not Active | Not Active | – | – | – | – | – | –
CC(C)(C)c1ccc(S(=O)(=O)/C=C/C#N)cc1 [BAY-11-7085] | Not Active | Not Active | Not Active | Not Active | Not Active | Not Active | Not Active | Not Active | Not Active | – | – | – | 5.38 | 5.79 | – | –
CCc1oc2ccccc2c1C(=O)c1cc(Br)c(O)c(Br)c1 [BENZBROMARONE] | Not Active | Not Active | Not Active | Not Active | Not Active | Not Active | – | Not Active | Not Active | Not Active | – | – | – | – | 5.28 | 5.53
O=c1cc(-c2ccccc2)oc2ccc3ccccc3c12 [BETA-NAPHTHOFLAVONE] | Not Active | Not Active | Not Active | Not Active | Not Active | Not Active | Not Active | Not Active | Not Active | Not Active | – | – | – | – | – | –
CC(C)C[C@H]1C(=O)N2CCC[C@H]2[C@]2(O)O[C@](NC(=O)[C@@H]3C=C4c5cccc6[nH]c(Br)c(c56)C[C@H]4N(C)C3)(C(C)C)C(=O)N12 [BROMOCRIPTINE] | Not Active | Not Active | Not Active | Not Active | Not Active | Not Active | Not Active | Not Active | Not Active | Not Active | – | – | – | – | – | –
CS(=O)(=O)OCCCCOS(C)(=O)=O [BUSULFAN] | Not Active | Not Active | Not Active | Not Active | Not Active | Not Active | Not Active | Not Active | Not Active | Not Active | – | – | – | – | – | –
O=C(/C=C/c1ccc(O)c(O)c1)OCCc1ccccc1 [CAFFEIC ACID PHENETHYL ESTER] | Not Active | Not Active | Not Active | Not Active | Not Active | Not Active | Not Active | Not Active | Not Active | Not Active | – | – | – | – | – | –
COc1cc(CNC(=O)CCCC/C=C/C(C)C)ccc1O [CAPSAICIN] | Not Active | Not Active | Not Active | Not Active | Not Active | Not Active | Not Active | Not Active | Not Active | Not Active | – | – | – | – | – | –
CCC[C@@H]1C[C@@H](C(=O)N[C@@H]([C@H]2O[C@H](SC)[C@H](O)[C@@H](O)[C@H]2O)[C@H](C)Cl)N(C)C1 [CLINDAMYCIN] | Not Active | Not Active | Not Active | Not Active | – | – | Not Active | Not Active | Not Active | Not Active | – | – | – | – | – | –
Cc1cn[nH]c1 [FOMEPIZOLE] | Not Active | Not Active | Not Active | Not Active | – | – | Not Active | Not Active | Not Active | Not Active | – | – | – | – | – | –
Cc1cnc(C(=O)NCCc2ccc(S(=O)(=O)NC(=O)NC3CCCCC3)cc2)cn1 [GLIPIZIDE] | Not Active | Not Active | Not Active | Not Active | – | – | Not Active | Not Active | Not Active | Not Active | – | – | – | – | – | –
COc1ccccc1OCC(O)CO (centres undefined) [GUAIFENESIN] | Not Active | Not Active | Not Active | Not Active | – | – | Not Active | Not Active | Not Active | Not Active | – | – | – | – | – | –
C/C=C\c1ccc(O)c(OC)c1 [ISOEUGENOL] | Not Active | Not Active | Not Active | Not Active | – | – | Not Active | Not Active | Not Active | Not Active | – | – | – | – | – | –
